Results as given in patent US20240174690A1, “ANNULATED 2-AMINO-3-CYANO THIOPHENES AND DERIVATIVES FOR THE TREATMENT OF CANCER” (BOEHRINGER INGELHEIM INTERNATIONAL GMBH, priority 2021, published 2024).
Where two headings read alike, the source gives them in different places.

Tests used:
[1] = Metabolic (microsomal) stability assay, human liver microsomes (HLM); format: in vitro ADME; details: predicted clearance as percent of liver blood flow, 1 μM
Procedure, shortened: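 LC-MS/MS tracked parent disappearance at 0, 5, 15, 30 and 60 min in NADPH-initiated incubations with 1 mg/mL human microsomal protein and 1 μM compound at 37°C, pH 7.5. First-order fits gave intrinsic clearance, which was scaled up and reported as % QH. NADPH-free controls were also run.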

SK-CO-1 cells = assay: SK-CO-1 CTG proliferation assay (120 h) (CRC, G12V); format: cell-based; details: SK-CO-1 cells (CRC, G12V), CTG 120 h
Procedure, shortened: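 Compound exposure lasted 120 h in KRAS G12V SK-CO-1 cells seeded overnight at 500 cells/well in 10% FCS EMEM. CellTiter-Glo RLU normalised to DMSO wells gave percent viability, and a four-parameter model fit yielded IC50.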

[2] = Plasma protein binding assay (PPB), equilibrium dialysis, 10% FCS in PBS; format: in vitro ADME; details: for fraction unbound: bovine, read-out: PPB 10% FCS (% fu)
Procedure, shortened: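 Test compound (1-10 μmol/L) in 10% FCS in PBS was dialysed for 3-5 h at 37° C versus PBS ± dextran across a semipermeable membrane. LC-MS of both compartments after protein precipitation gave Cserum and Cbuffer, from which the unbound fraction fu was derived.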

AsPC-1 cells = assay: AsPC-1 CTG proliferation assay (120 h) (pancreatic cancer, G12D); format: cell-based
Procedure, shortened: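 CellTiter-Glo luminescence, normalised to DMSO wells, measured viability after 120 h compound exposure. Cells were AsPC-1 pancreatic cancer (G12D) plated at 2000 per well in RPMI/10% FCS the day before dosing. IC50 derived by four-parameter regression.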

SAS cells = assay: SAS CTG proliferation assay (120 h) (HNSCC, wt amplified); format: cell-based
Procedure, shortened: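 Viability measured by CellTiter-Glo luminescence, normalized to DMSO wells, after 120 h compound treatment of SAS cells. Cells grown in DMEM:F12 plus 10% FCS at 300 cells per well, dosed the day after seeding. Four-parameter fit gives IC50.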

Row | SMILES | HLM QH [1] [%] | IC50 (SK-CO-1 cells; Homo sapiens) [nM] | fraction unbound [2] | IC50 (AsPC-1 cells; Homo sapiens, ASPC1) [nM] | IC50 (SAS cells) [nM] | IC50 (SK-CO-1 cells) [nM] | PPB 10% FCS (% fu) ([2]; fraction unbound) | IC50 (AsPC-1 cells) [nM]
1 | C[C@H](Oc1cc(-n2cc3c(n2)CNC3)nc(-c2noc3c2CCC[C@@]32CCCc3sc(N)c(C#N)c32)n1)[C@@H]1C[C@@H](F)CN1C [II-154] | 76 | 2120 | 0.1 | 1010 | 747 | – | – | –
2 | C[C@H](Oc1nc(-c2noc3c2CCC[C@@]32CCCc3sc(N)c(C#N)c32)nc(N2CCNC3(CC3)C2)c1F)[C@@H]1C[C@@H](F)CN1C [II-155] | 70 | 263 | 0.04 | 11 | 471 | – | – | –
3 | C[C@H](Oc1nc(-c2noc3c2CCC[C@@]32CCCc3sc(N)c(C#N)c32)nc(N2CCNC3(CC3)C2)c1Cl)[C@@H]1C[C@@H](F)CN1C [II-156] | 65 | 390 | 0.04 | 86 | 440 | – | – | –
4 | C[C@H](Oc1nc(-c2noc3c2CCC[C@@]32CCCc3sc(N)c(C#N)c32)nc(N2C[C@H](C)NC3(CC3)C2)c1F)[C@@H]1C[C@@H](F)CN1C [II-157] | 69 | 339 | 0.03 | 129 | 1190 | – | – | –
5 | C[C@@H]1CN(c2nc(-c3noc4c3CCC[C@@]43CCCc4sc(N)c(C#N)c43)nc(O[C@@H](C)[C@@H]3C[C@@H](F)CN3C)c2F)CC2(CC2)N1 [II-158] | 73 | 374 | 0.04 | 256 | 585 | – | – | –
6 | COc1c(O[C@@H](C)[C@@H]2CCCN2C)nc(-c2noc3c2CCC[C@@]32CCCc3sc(N)c(C#N)c32)nc1-n1ccc(C(N)=O)n1 [II-159] | 40 | 131 | 0.21 | 1890 | 70 | – | – | –
7 | C[C@H](Oc1cc(N2CC3COCC(C2)N3)nc(-c2noc3c2CCC[C@@]32CCCc3sc(N)c(C#N)c32)n1)[C@@H]1CCCN1C [II-160] | 31 | 6850 | 0.53 | 3220 | 821 | – | – | –
8 | C[C@@H]1CN(c2cc(O[C@@H](C)[C@@H]3CCCN3C)nc(-c3noc4c3CCC[C@@]43CCCc4sc(N)c(C#N)c43)n2)CCN1 [II-161] | <24 | 1020 | 0.37 | 1600 | 1580 | – | – | –
9 | C[C@H](Oc1cc(N2CCN[C@@H](C)C2)nc(-c2noc3c2CCC[C@@]32CCCc3sc(N)c(C#N)c32)n1)[C@@H]1CCCN1C [II-162] | <24 | 980 | 0.69 | 922 | 2120 | – | – | –
10 | C[C@H](Oc1cc(C2=CCNCC2)nc(-c2noc3c2CCC[C@@]32CCCc3sc(N)c(C#N)c32)n1)[C@@H]1CCCN1C [II-164] | <24 | 287 | 0.54 | 483 | 1500 | – | – | –
11 | C[C@H](Oc1cc(N2CCNC3(CC3)C2)nc(-c2noc3c2CCC[C@@]32CCCc3sc(N)c(C#N)c32)n1)[C@@H]1C[C@@H](F)CN1C [II-165] | 61 | 529 | 0.16 | 25 | 437 | – | – | –
12 | CC(C)[C@@H]1CN(c2cc(O[C@@H](C)[C@@H]3CCCN3C)nc(-c3noc4c3CCC[C@@]43CCCc4sc(N)c(C#N)c43)n2)CCN1 [II-166] | <24 | 551 | 0.22 | 1280 | 1180 | – | – | –
13 | C[C@H](Oc1cc(N2C[C@@H]3[C@@H](N)[C@@H]3C2)nc(-c2noc3c2CCC[C@@]32CCCc3sc(N)c(C#N)c32)n1)[C@@H]1CCCN1C [II-167] | <24 | 1340 | 0.26 | 4230 | 1390 | – | – | –
14 | C[C@H](Oc1cc(-n2cc3c(n2)CNC3)nc(-c2noc3c2CCC[C@@]32CCCc3sc(N)c(C#N)c32)n1)[C@@H]1CCCN1C [II-168] | 62 | 154 | 0.47 | 778 | 441 | – | – | –
15 | CC(C)N1CCCN(c2cc(-c3ccn(C)n3)nc(-c3noc4c3CCC[C@@]43CCCc4sc(N)c(C#N)c43)n2)[C@@H](C)C1 [II-170] | 33 | 121 | 0.32 | 3590 | 1050 | – | – | –
16 | C[C@H](Oc1cc(N2CCN(C)C3(CC3)C2)nc(-c2noc3c2CCC[C@@]32CCCc3sc(N)c(C#N)c32)n1)[C@@H]1CCCN1C [II-171] | 32 | 1530 | 0.23 | 295 | 1100 | – | – | –
17 | C[C@H](Oc1cc(N2C[C@H](C)N(C)[C@@H](C)C2)nc(-c2noc3c2CCC[C@@]32CCCc3sc(N)c(C#N)c32)n1)[C@@H]1CCCN1C [II-173] | <24 | 805 | 0.41 | 1210 | 751 | – | – | –
18 | C[C@H](Oc1cc(-n2cc3c(n2)CN(C)C3)nc(-c2noc3c2CCC[C@@]32CCCc3sc(N)c(C#N)c32)n1)[C@@H]1CCCN1C [II-174] | 39 | 385 | 0.17 | 103 | 248 | – | – | –
19 | C[C@H](Oc1nc(-c2noc3c2CCC[C@@]32CCCc3sc(N)c(C#N)c32)nc(N2CCN(C)C3(CC3)C2)c1Cl)[C@@H]1C[C@@H](F)CN1C [II-176] | 63 | 2060 | 0.01 | 851 | 4940 | – | – | –
20 | CC(=O)N1CCN(c2cc(O[C@@H](C)[C@@H]3CCCN3C)nc(-c3noc4c3CCC[C@@]43CCCc4sc(N)c(C#N)c43)n2)CC12CC2 [II-178] | <24 | 149 | 0.46 | 814 | 2570 | – | – | –
21 | CC(C)NC(=O)Cc1ccn(-c2cc(O[C@@H](C)[C@@H]3CCCN3C)nc(-c3noc4c3CCC[C@@]43CCCc4sc(N)c(C#N)c43)n2)n1 [II-182] | 35 | 9 | 0.13 | 188 | 32 | – | – | –
22 | CO[C@H]1CCN(C)[C@@H]1[C@H](C)Oc1cc(-n2ccc(CC(=O)NC(C)C)n2)nc(-c2noc3c2CCC[C@@]32CCCc3sc(N)c(C#N)c32)n1 [II-183] | 75 | 7 | 0.04 | 162 | 6 | – | – | –
23 | CO[C@H]1CCN(C)[C@@H]1[C@H](C)Oc1cc(N2CCNC3(CC3)C2)nc(-c2noc3c2CCC[C@@]32CCCc3sc(N)c(C#N)c32)n1 [II-184] | 60 | 249 | 0.1 | 8 | 882 | – | – | –
24 | CO[C@H]1CCN(C)[C@@H]1[C@H](C)Oc1cc(N2CCN(C)C3(CC3)C2)nc(-c2noc3c2CCC[C@@]32CCCc3sc(N)c(C#N)c32)n1 [II-186] | 49 | 880 | 0.08 | 38 | 532 | – | – | –
25 | CO[C@@H]1C[C@@H]([C@H](C)Oc2cc(N3CCNC4(CC4)C3)nc(-c3noc4c3CCC[C@@]43CCCc4sc(N)c(C#N)c43)n2)N(C)C1 [II-187] | 46 | 457 | 0.14 | 30 | 1150 | – | – | –
26 | C[C@H](Oc1cc(-n2ccc(C3(O)COC3)n2)nc(-c2noc3c2CCC[C@@]32CCCc3sc(N)c(C#N)c32)n1)[C@@H]1CCCN1C [II-189] | <24 | 45 | 0.16 | 1150 | 51 | – | – | –
27 | C[C@H](NC(=O)c1ccn(-c2cc(O[C@@H](C)[C@@H]3CCCN3C)nc(-c3noc4c3CCC[C@@]43CCCc4sc(N)c(C#N)c43)n2)n1)c1ccccn1 [II-191] | 32 | 3 | 0.03 | 425 | 10 | – | – | –
28 | C[C@H](Oc1cc(-n2ccc(C(=O)N[C@@H]3CCOC3)n2)nc(-c2noc3c2CCC[C@@]32CCCc3sc(N)c(C#N)c32)n1)[C@@H]1CCCN1C [II-192] | 30 | 4 | 0.24 | 305 | 25 | – | – | –
29 | C[C@H](Oc1cc(-n2ccc(C(=O)N[C@H]3CCOC3)n2)nc(-c2noc3c2CCC[C@@]32CCCc3sc(N)c(C#N)c32)n1)[C@@H]1CCCN1C [II-193] | 31 | – | – | – | 10 | 3 | 20 | 176
30 | C[C@H](Oc1cc(-n2ccc(C(=O)N(C)C3COC3)n2)nc(-c2noc3c2CCC[C@@]32CCCc3sc(N)c(C#N)c32)n1)[C@@H]1CCCN1C [II-194] | 30 | 11 | 0.08 | 411 | 37 | – | – | –
